Source: US12403192B2, “Nanoemulsion compositions for preventing, suppressing or eliminating allergic and inflammatory disease” (priority 2014, dated 2025)

System: virus
Experiment: Virus inactivation by BCTP components
Conditions: concentrations equivalent to 11% BCTP
Text: Individual components of nanoemulsions (e.g. in an immunogenic composition of the present invention) can function both to inactivate a pathogen as well as to contribute to the non-toxicity of the emulsions. […] Adding the oil phase to the detergent and solvent markedly reduces the toxicity of these agents in tissue culture at the same concentrations. […] Furthermore, when all the components of BCTP are combined in one composition but are not in a nanoemulsion structure, the mixture is not as effective at inactivating a pathogen as when the components are in a nanoemulsion structure.

TRITON-X100 was tested, and the “ability to inactivate a virus” value was “less ability”.
